Test results from patent US9896445B2, “Heterocyclic inhibitors of ERK1 and ERK2 and their use in the treatment of cancer” (Asana Biosciences, LLC, priority 2015, dated 2018).

Experiments:
[1] = target: T1, ERK2 (Homo sapiens, UniProt P28482); test: ERK2 HTRF (biochemical) assay; details: HTRF
T1 construct: purchased Jubilant Biosys
Outline: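 Readout was time-resolved FRET between europium anti-phospho-MBP and streptavidin-APC after a 60-min room-temperature kinase step. That step used ERK2 (25 nM in enzyme mix), biotinylated MBP peptide (1 uM) and ATP (24 uM) from the substrate mix, in pH 7.5 Tris buffer.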

[2] = target: T2, ERK1 (Homo sapiens, UniProt P27361); test: ERK1 HTRF (biochemical) assay; details: HTRF
T2 construct: purchased Jubilant Biosys
T2 sequence (P27361 whole entry): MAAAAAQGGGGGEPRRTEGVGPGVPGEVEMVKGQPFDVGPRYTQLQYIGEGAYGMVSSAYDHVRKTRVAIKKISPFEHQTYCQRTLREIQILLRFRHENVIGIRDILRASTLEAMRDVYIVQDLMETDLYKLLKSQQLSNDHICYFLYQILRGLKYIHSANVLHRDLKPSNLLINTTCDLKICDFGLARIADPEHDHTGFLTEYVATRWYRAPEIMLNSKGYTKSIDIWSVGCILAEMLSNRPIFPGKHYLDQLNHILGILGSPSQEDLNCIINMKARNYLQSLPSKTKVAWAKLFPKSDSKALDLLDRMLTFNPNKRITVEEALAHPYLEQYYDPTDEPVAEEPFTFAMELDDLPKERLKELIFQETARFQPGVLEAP
Method: ERK1 and ERK2 HTRF (Biochemical) Assays
These assays employed a homogeneous time resolved fluorescence (HTRF) technique. […] The plate was incubated at room temperature for 60 min with shaking. […] The IC50 values (half maximal inhibitory concentration values) were subsequently determined using a sigmoidal dose-response curve (variable slope) in GraphPad Prism® 5 software.

T1 sequence (P28482 whole entry): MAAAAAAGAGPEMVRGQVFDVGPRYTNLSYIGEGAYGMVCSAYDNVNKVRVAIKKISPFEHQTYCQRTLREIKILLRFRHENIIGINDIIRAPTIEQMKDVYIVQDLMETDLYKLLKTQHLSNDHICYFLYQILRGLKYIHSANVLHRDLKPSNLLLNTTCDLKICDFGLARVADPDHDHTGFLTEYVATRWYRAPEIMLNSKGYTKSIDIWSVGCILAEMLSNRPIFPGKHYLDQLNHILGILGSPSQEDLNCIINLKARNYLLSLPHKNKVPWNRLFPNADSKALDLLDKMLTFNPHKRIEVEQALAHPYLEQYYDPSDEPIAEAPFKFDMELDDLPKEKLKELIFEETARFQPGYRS

Structure (SMILES)	IC50 [1] [nM]	IC50 [2] [nM]
Cc1cnc(NC2CCOCC2)nc1-n1cnc(C(=O)NC(c2cccc(Cl)c2)C(C)O)c1 (stereo not drawn) [Compound 253, N-(1-(3-chlorophenyl)-2-hydroxypropyl)-1-(5-methyl-2-((tetrahydro-2H-pyran-4-yl)amino)-pyrimidin-4-yl)-1H-imidazole-4-carboxamide]	≤ 50	< 50
Cc1cnc(N[C@H]2CCOC2)nc1-n1cnc(C(=O)N[C@H](CN)c2cccc(Cl)c2)c1 [Example 255, N-((S)-2-amino-1-(3-chlorophenyl)-ethyl)-1-(5-methyl-2-(((S)-tetrahydro-furan-3-yl)amino)-pyrimidin-4-yl)-1H-imidazole-4-carboxamide]	≤ 50	< 50
Cc1cnc(Nc2ccc(F)c(N3CCOCC3)c2)nc1-n1cnc(C(=O)NC(CN)c2cccc(Cl)c2)c1 (stereo not drawn) [Example 256, N-(2-amino-1-(3-chlorophenyl)ethyl)-1-(2-((4-fluoro-3-morpholinophenyl)amino)-5-methyl-pyrimidin-4-yl)-1H-imidazole-4-carboxamide]	≤ 50	< 50
Cc1cnc(NC2CCOCC2)nc1-n1cnc(C(=O)NC(CO)c2ccc(Cl)s2)c1 (stereo not drawn) [Example 257, N-(1-(5-chlorothiophen-2-yl)-2-hydroxy-ethyl)-1-(5-methyl-2-((tetrahydro-2H-pyran-4-yl)amino)-pyrimidin-4-yl)-1H-imidazole-4-carboxamide]	≤ 50	< 50
Cc1cnc(NC2CCOCC2)nc1-n1cnc(C(=O)NC(CO)c2cccc(C(C)(C)C)c2)c1 (stereo not drawn) [Example 258, N-(1-(3-(tert-butyl)phenyl)-2-hydroxyethyl)-1-(5-methyl-2-((tetrahydro-2H-pyran-4-yl)amino)-pyrimidin-4-yl)-1H-imidazole-4-carboxamide]	≤ 50	< 50
Cc1cnc(NC(CO)CO)nc1-n1cnc(C(=O)N[C@H](CO)c2cccc(Cl)c2)c1 [Example 260, (S)-N-(1-(3-chlorophenyl)-2-hydroxyethyl)-1-(2-((1,3-dihydroxy-propan-2-yl)amino)-5-methylpyrimidin-4-yl)-1H-imidazole-4-carboxamide]	≤ 50	< 50
Cc1ccc(C(CO)NC(=O)c2cn(-c3nc(NC4CCOCC4)ncc3C)cn2)s1 (stereo not drawn) [Example 261, N-(2-hydroxy-1-(5-methylthiophen-2-yl)ethyl)-1-(5-methyl-2-((tetrahydro-2H-pyran-4-yl)amino)-pyrimidin-4-yl)-1H-imidazole-4-carboxamide]	≤ 50	< 50
Cc1cnc(Nc2ccc(F)cc2)nc1-n1cnc(C(=O)NCc2cccc(Cl)c2CO)c1 [Example 262, N-(3-chloro-2-(hydroxymethyl)benzyl)-1-(2-((4-fluorophenyl)-amino)-5-methyl-pyrimidin-4-yl)-1H-imidazole-4-carbox amide]	≤ 50	< 50
Cc1cnc(N[C@@H]2CCOC2)nc1-n1cnc(C(=O)N[C@H](CN)c2cccc(Cl)c2)c1 [Example 264, N-((S)-2-amino-1-(3-chlorophenyl)-ethyl)-1-(5-methyl-2-(((R)-tetrahydrofuran-3-yl)amino)pyrimidin-4-yl)-1H-imidazole-4-carboxamide]	≤ 50	< 50
Cc1cnc(N[C@@H]2CCOC2)nc1-n1cnc(C(=O)N[C@H](CO)c2cccc(Cl)c2)c1 [Example 265, N-((S)-1-(3-chlorophenyl)-2-hydroxyethyl)-1-(5-methyl-2-(((R)-tetrahydrofuran-3-yl)amino)pyrimidin-4-yl)-1H-imidazole-4-carboxamide]	≤ 50	< 50
Cc1cnc(Nc2ccc3c(c2)OCO3)nc1-n1cnc(C(=O)N[C@H](CN)c2cccc(Cl)c2)c1 [Example 266, (S)-N-(2-amino-1-(3-chlorophenyl)-ethyl)-1-(2-(benzo[d][1,3]dioxol-5-ylamino)-5-methylpyrimidin-4-yl)-1H-imidazole-4-carboxamide]	≤ 50	< 50
Cc1cnc(NC2CCOCC2)nc1-n1cnc(C(=O)NC(CN)c2cccs2)c1 (stereo not drawn) [Example 267, N-(2-amino-1-(thiophen-2-yl)ethyl)-1-(5-methyl-2-((tetrahydro-2H-pyran-4-yl)amino)-pyrimidin-4-yl)-1H-imidazole-4-carboxamide]	≤ 50	< 50
Cc1cnc(NC2COC2)nc1-n1cnc(C(=O)N[C@H](CN)c2cccc(Cl)c2)c1 [Example 268, (S)-N-(2-amino-1-(3-chlorophenyl)-ethyl)-1-(5-methyl-2-(oxetan-3-ylamino)pyrimidin-4-yl)-1H-imidazole-4-carboxamide]	≤ 50	< 50
Cc1cnc(Nc2ccc3c(c2)OCO3)nc1-n1cnc(C(=O)NC(CN)c2cc(F)cc(Cl)c2)c1 (stereo not drawn) [Example 269, N-(2-amino-1-(3-chloro-5-fluorophenyl)ethyl)-1-(2-(benzo[d][1,3]dioxol-5-ylamino)-5-methylpyrimidin-4-yl)-1H-imidazole-4-carboxamide]	≤ 50	< 50
Cc1cnc(N[C@H]2CCOC2)nc1-n1cnc(C(=O)NCc2cccc(Cl)c2CO)c1 [Example 270]	≤ 50	< 50
Cc1cnc(NC2CCOc3ccccc32)nc1-n1cnc(C(=O)N[C@H](CN)c2cccc(Cl)c2)c1 (stereo partly drawn) [Example 271, N-((S)-2-amino-1-(3-chlorophenyl)ethyl)-1-(2-(chroman-4-ylamino)-5-methylpyrimidin-4-yl)-1H-imidazole-4-carboxamide]	≤ 50	< 50
Cc1cnc(Nc2cccc(N3CCOCC3)c2)nc1-n1cnc(C(=O)N[C@H](CN)c2cccc(Cl)c2)c1 [Example 272, (S)-N-(2-amino-1-(3-chlorophenyl)ethyl)-1-(5-methyl-2-((3-morpholino-phenyl)amino)pyrimidin-4-yl)-1H-imidazole-4-carboxamide]	≤ 50	< 50
Cc1cnc(NC2CC(F)(F)C2)nc1-n1cnc(C(=O)NCc2cccc(Cl)c2CO)c1 [Example 273, N-(3-chloro-2-(hydroxymethyl)benzyl)-1-(2-((3,3-difluorocyclobutyl)amino)-5-methyl-pyrimidin-4-yl)-1H-imidazole-4-carboxamide]	≤ 50	< 50
Cc1cnc(NC2CCOCC2)nc1-n1cnc(C(=O)NC(CN)c2ccc(Cl)s2)c1 (stereo not drawn) [Example 274, N-(2-amino-1-(5-chlorothiophen-2-yl)ethyl)-1-(5-methyl-2-((tetrahydro-2H-pyran-4-yl)amino)-pyrimidin-4-yl)-1H-imidazole-4-carboxamide]	≤ 50	< 50
Cc1cnc(NC2CCOCC2)nc1-n1cnc(C(=O)N[C@@H](CN)c2cc(F)cc(Cl)c2)c1 [Example 276, (R)-N-(2-amino-1-(3-chloro-5-fluoro-phenyl)ethyl)-1-(5-methyl-2-((tetrahydro-2H-pyran-4-yl)amino)-pyrimidin-4-yl)-1H-imidazole-4-carboxamide]	≤ 50	< 50
Cc1cnc(Nc2ccnn2C)nc1-n1cnc(C(=O)N[C@H](CO)c2cccc(Cl)c2)c1 [Example 277, (S)-N-(1-(3-chlorophenyl)-2-hydroxyethyl)-1-(5-methyl-2-((1-methyl-1H-pyrazol-5-yl)amino)-pyrimidin-4-yl)-1H-imidazole-4-carboxamide]	≤ 50	< 50
